Laboratory results published in ChEMBL document CHEMBL1123679, “5-Quinone derivatives of 2'-deoxyuridine 5'-phosphate: inhibition and inactivation of thymidylate synthase, antitumor cell, and antiviral studies” (J Med Chem, 1987).
pKi: −log10 of the molar value. Converted amounts (≈) assume the structure as drawn.

Key:
Thymidylate synthase [1] = biological target: T1, Thymidylate synthase (Lactobacillus casei, UniProt P00469); assay: Ability to inhibit the thymidylate synthase from Lactobacillus casei was determined and expressed as inhibition constant (Ki); parameters: species or system Lacticaseibacillus casei
T1 sequence (P00469 whole entry): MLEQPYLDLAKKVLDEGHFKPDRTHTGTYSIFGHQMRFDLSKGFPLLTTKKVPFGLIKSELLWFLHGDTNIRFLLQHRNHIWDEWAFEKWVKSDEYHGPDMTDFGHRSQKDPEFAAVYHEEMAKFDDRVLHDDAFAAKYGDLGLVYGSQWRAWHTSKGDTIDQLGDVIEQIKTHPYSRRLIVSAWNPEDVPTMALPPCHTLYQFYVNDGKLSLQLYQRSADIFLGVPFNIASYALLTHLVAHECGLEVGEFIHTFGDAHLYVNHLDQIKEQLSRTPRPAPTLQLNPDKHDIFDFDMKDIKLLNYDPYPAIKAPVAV

Oryctolagus cuniculus [2] = organism: Oryctolagus cuniculus; assay: Minimal inhibitory concentration against vesicular stomatitis virus-induced cytopathogenicity by 50% in rabbit kidney cell cultures; type: functional
Oryctolagus cuniculus [3] = organism: Oryctolagus cuniculus; assay: Minimal inhibitory concentration against HSV-1 (KOS)-induced cytopathogenicity by 50% in rabbit kidney cell cultures; type: functional
Oryctolagus cuniculus [4] = organism: Oryctolagus cuniculus; assay: Minimal inhibitory concentration against vaccinia virus-induced cytopathogenicity by 50% in rabbit kidney cell cultures; type: functional
Oryctolagus cuniculus [5] = organism: Oryctolagus cuniculus; assay: Minimal inhibitory concentration against HSV-1 (McIntyre)-induced cytopathogenicity by 50% in rabbit kidney cell cultures; type: functional
Raji [6] = assay: Inhibition of human B-cell lymphoblast Raji cell proliferation; type: functional; conditions: read-out: ID50 (the source's name)
L1210 = assay: Ability to inhibit the proliferation or tumor cell growth by 50% of the murine leukemia L1210 cells was determined; type: functional; conditions: Mus musculus, read-out: ID50 (the source's name)
Oryctolagus cuniculus [7] = organism: Oryctolagus cuniculus; assay: Minimal inhibitory concentration against HSV-1 (F)-induced cytopathogenicity by 50% in rabbit kidney cell cultures; type: functional
[8] = Ability to inhibit the proliferation or tumor cell growth by 50% of the human T-cell lymphoblast (Molt/4F) cells was determined; type: functional; conditions: read-out: ID50 (the source's name)
Oryctolagus cuniculus [9] = organism: Oryctolagus cuniculus; assay: Minimal inhibitory concentration against HSV-2 (Lyons)-induced cytopathogenicity by 50% in rabbit kidney cell cultures; type: functional
Oryctolagus cuniculus [10] = organism: Oryctolagus cuniculus; assay: Minimal inhibitory concentration against HSV-2 (196)-induced cytopathogenicity by 50% in rabbit kidney cell cultures; type: functional
Oryctolagus cuniculus [11] = organism: Oryctolagus cuniculus; assay: Minimal inhibitory concentration against HSV-2 (G)-induced cytopathogenicity by 50% in rabbit kidney cell cultures; type: functional
Thymidylate synthase [12] = biological target: Thymidylate synthase (Mus musculus, UniProt P07607); assay: Ability to inhibit the thymidylate synthase from murine leukemia L1210 cells was determined and expressed as inhibition constant(Ki); type: cell-based
Sequence of Thymidylate synthase (Mus musculus, UniProt P07607) (P07607 whole entry): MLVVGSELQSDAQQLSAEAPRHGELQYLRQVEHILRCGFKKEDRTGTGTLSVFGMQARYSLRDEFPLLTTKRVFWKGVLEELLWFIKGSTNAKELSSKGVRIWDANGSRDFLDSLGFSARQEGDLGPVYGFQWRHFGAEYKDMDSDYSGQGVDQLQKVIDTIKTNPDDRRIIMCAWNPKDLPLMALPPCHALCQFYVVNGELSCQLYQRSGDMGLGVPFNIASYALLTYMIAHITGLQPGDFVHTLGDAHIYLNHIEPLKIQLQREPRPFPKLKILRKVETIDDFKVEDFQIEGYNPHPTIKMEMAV

Thymidylate synthase [13] = biological target: T1, Thymidylate synthase; assay: Ability to inhibit the thymidylate synthase from Lactobacillus casei was determined and expressed as inhibition constant(Ki); parameters: species or system Lacticaseibacillus casei
Oryctolagus cuniculus [14] = organism: Oryctolagus cuniculus; assay: Minimal inhibitory concentration required to cause a microscopically detectable alteration of normal cell morphology of rabbit kidney cell cultures; type: functional
Raji [15] = assay: Inhibition of human B-cell lymphoblast Raji cell proliferation; Value ranges from (10-55.6); type: functional; conditions: read-out: ID50 (the source's name)
Oryctolagus cuniculus [16] = organism: Oryctolagus cuniculus; assay: Minimal inhibitory concentration required to cause a microscopically detectable alteration of normal cell morphology of rabbit kidney cell culture; type: functional

Structure (SMILES): COc1cc(-c2cn([C@H]3C[C@H](O)[C@@H](COP(=O)(O)O)O3)c(=O)[nH]c2=O)c(OC)c(C)c1C
- pKi (Thymidylate synthase [1]): 5.44

Structure (SMILES): O=C1C=CC(=O)C(c2cn([C@H]3C[C@H](O)[C@@H](CO)O3)c(=O)[nH]c2=O)=C1
- MIC (Oryctolagus cuniculus [2]): > 200 µg/mL
- MIC (Oryctolagus cuniculus [3]): 20 µg/mL (≈ 59.8 µM)
- MIC (Oryctolagus cuniculus [4]): 70 µg/mL (≈ 209 µM)
- MIC (Oryctolagus cuniculus [5]): 150 µg/mL (≈ 449 µM)
- IC50 (Raji [6]): > 100 µg/mL
- IC50 (L1210): 35.7 µg/mL (≈ 107 µM)
- MIC (Oryctolagus cuniculus [7]): 20 µg/mL (≈ 59.8 µM)
- IC50 [8]: > 100 µg/mL
- MIC (Oryctolagus cuniculus [9]): 70 µg/mL (≈ 209 µM)
- MIC (Oryctolagus cuniculus [10]): 70 µg/mL (≈ 209 µM)
- MIC (Oryctolagus cuniculus [11]): 70 µg/mL (≈ 209 µM)

Structure (SMILES): CC1=C(C)C(=O)C(c2cn([C@H]3C[C@H](O)[C@@H](COP(=O)(O)O)O3)c(=O)[nH]c2=O)=C(C)C1=O
- pKi (Thymidylate synthase [12]): 5.29
- pKi (Thymidylate synthase [13]): 5.89

Structure (SMILES): CC1=C(c2cn([C@H]3C[C@H](O)[C@@H](CO)O3)c(=O)[nH]c2=O)C(=O)c2ccccc2C1=O
- MIC (Oryctolagus cuniculus [2]): > 10 µg/mL
- MIC (Oryctolagus cuniculus [3]): > 10 µg/mL
- MIC (Oryctolagus cuniculus [4]): > 10 µg/mL
- MIC (Oryctolagus cuniculus [5]): > 10 µg/mL
- IC50 (Raji [6]): 33.5 µg/mL (≈ 84.1 µM)
- IC50 (L1210): 27.4 µg/mL (≈ 68.8 µM)
- MIC (Oryctolagus cuniculus [7]): > 10 µg/mL
- IC50 [8]: 30.9 µg/mL (≈ 77.6 µM)
- MIC (Oryctolagus cuniculus [9]): > 10 µg/mL
- MIC (Oryctolagus cuniculus [10]): > 10 µg/mL
- MIC (Oryctolagus cuniculus [14]): 40 µg/mL (≈ 100 µM)
- MIC (Oryctolagus cuniculus [11]): > 10 µg/mL

Structure (SMILES): CC1=C(C)C(=O)C(c2cn([C@H]3C[C@H](O)[C@@H](COP(=O)(O)O)O3)c(=O)[nH]c2=O)=CC1=O
- pKi (Thymidylate synthase [12]): 5.21
- pKi (Thymidylate synthase [13]): 6.23

Structure (SMILES): COc1c(C)c(C)c(OC)c(-c2cn([C@H]3C[C@H](O)[C@@H](COP(=O)(O)O)O3)c(=O)[nH]c2=O)c1C
- pKi (Thymidylate synthase [13]): 5.85

Structure (SMILES): COc1cc(-c2cn([C@H]3C[C@H](O)[C@@H](CO)O3)c(=O)[nH]c2=O)c(OC)c(C)c1C
- IC50 (Raji [6]): > 100 µg/mL
- IC50 (L1210): > 100 µg/mL
- IC50 [8]: > 100 µg/mL

Structure (SMILES): CC1=C(C)C(=O)C(c2cn([C@H]3C[C@H](O)[C@@H](CO)O3)c(=O)[nH]c2=O)=CC1=O
- MIC (Oryctolagus cuniculus [2]): > 100 µg/mL
- MIC (Oryctolagus cuniculus [3]): 150 µg/mL (≈ 414 µM)
- MIC (Oryctolagus cuniculus [4]): > 100 µg/mL
- MIC (Oryctolagus cuniculus [5]): 70 µg/mL (≈ 193 µM)
- IC50 (Raji [6]): > 100 µg/mL
- IC50 (L1210): 40.5 µg/mL (≈ 112 µM)
- MIC (Oryctolagus cuniculus [7]): > 100 µg/mL
- IC50 [8]: 66.8 µg/mL (≈ 184 µM)
- MIC (Oryctolagus cuniculus [9]): 70 µg/mL (≈ 193 µM)
- MIC (Oryctolagus cuniculus [10]): 70 µg/mL (≈ 193 µM)
- MIC (Oryctolagus cuniculus [14]): 200 µg/mL (≈ 552 µM)
- MIC (Oryctolagus cuniculus [11]): > 100 µg/mL

Structure (SMILES): CC1=C(C)C(=O)C(c2cn([C@H]3C[C@H](O)[C@@H](CO)O3)c(=O)[nH]c2=O)=C(C)C1=O
- MIC (Oryctolagus cuniculus [2]): > 100 µg/mL
- MIC (Oryctolagus cuniculus [3]): > 200 µg/mL
- MIC (Oryctolagus cuniculus [4]): > 200 µg/mL
- MIC (Oryctolagus cuniculus [5]): > 200 µg/mL
- IC50 (Raji [6]): 51.1 µg/mL (≈ 136 µM)
- IC50 (L1210): 65.6 µg/mL (≈ 174 µM)
- MIC (Oryctolagus cuniculus [7]): > 200 µg/mL
- IC50 [8]: 29.7 µg/mL (≈ 78.9 µM)
- MIC (Oryctolagus cuniculus [9]): > 200 µg/mL
- MIC (Oryctolagus cuniculus [10]): > 200 µg/mL
- MIC (Oryctolagus cuniculus [14]): > 200 µg/mL
- MIC (Oryctolagus cuniculus [11]): > 200 µg/mL

Structure (SMILES): COc1c(C)c(C)c(OC)c(-c2cn([C@H]3C[C@H](O)[C@@H](CO)O3)c(=O)[nH]c2=O)c1C
- IC50 (Raji [6]): > 100 µg/mL
- IC50 (L1210): > 100 µg/mL
- IC50 [8]: > 100 µg/mL

Structure (SMILES): COc1c(C)c(-c2cn([C@H]3C[C@H](O)[C@@H](CO)O3)c(=O)[nH]c2=O)c(OC)c2ccccc12
- IC50 (Raji [15]): 55.6 µg/mL (≈ 130 µM)
- IC50 (L1210): > 100 µg/mL
- IC50 [8]: > 100 µg/mL

Structure (SMILES): COc1c(C)c(-c2cn([C@H]3C[C@H](O)[C@@H](COP(=O)(O)O)O3)c(=O)[nH]c2=O)c(OC)c2ccccc12
- pKi (Thymidylate synthase [13]): 5.62

Structure (SMILES): O=C1C=CC(=O)C(c2cn([C@H]3C[C@H](O)[C@@H](COP(=O)(O)O)O3)c(=O)[nH]c2=O)=C1
- pKi (Thymidylate synthase [13]): 5.70

Structure (SMILES): CC1=C(c2cn([C@H]3C[C@H](O)[C@@H](COP(=O)(O)O)O3)c(=O)[nH]c2=O)C(=O)c2ccccc2C1=O
- pKi (Thymidylate synthase [12]): 5.72
- pKi (Thymidylate synthase [13]): 6.21

Structure (SMILES): O=c1[nH]c(=O)n([C@H]2C[C@H](O)[C@@H](CO)O2)cc1Br [BROXURIDINE]
- MIC (Oryctolagus cuniculus [2]): > 400 µg/mL
- MIC (Oryctolagus cuniculus [3]): 0.02 µg/mL (≈ 0.0651 µM)
- MIC (Oryctolagus cuniculus [4]): 7 µg/mL (≈ 22.8 µM)
- MIC (Oryctolagus cuniculus [5]): 0.02 µg/mL (≈ 0.0651 µM)
- MIC (Oryctolagus cuniculus [7]): 0.07 µg/mL (≈ 0.228 µM)
- MIC (Oryctolagus cuniculus [9]): 20 µg/mL (≈ 65.1 µM)
- MIC (Oryctolagus cuniculus [10]): 10 µg/mL (≈ 32.6 µM)
- MIC (Oryctolagus cuniculus [14]): > 400 µg/mL
- MIC (Oryctolagus cuniculus [11]): 2 µg/mL (≈ 6.51 µM)

Structure (SMILES): O=c1[nH]c(=O)n([C@H]2C[C@H](O)[C@@H](CO)O2)cc1I [IDOXURIDINE]
- MIC (Oryctolagus cuniculus [2]): > 400 µg/mL
- MIC (Oryctolagus cuniculus [3]): 0.2 µg/mL (≈ 0.565 µM)
- MIC (Oryctolagus cuniculus [4]): 0.7 µg/mL (≈ 1.98 µM)
- MIC (Oryctolagus cuniculus [5]): 0.7 µg/mL (≈ 1.98 µM)
- MIC (Oryctolagus cuniculus [7]): 0.7 µg/mL (≈ 1.98 µM)
- MIC (Oryctolagus cuniculus [9]): 0.7 µg/mL (≈ 1.98 µM)
- MIC (Oryctolagus cuniculus [10]): 1 µg/mL (≈ 2.82 µM)
- MIC (Oryctolagus cuniculus [16]): > 400 µg/mL
- MIC (Oryctolagus cuniculus [11]): 0.7 µg/mL (≈ 1.98 µM)

Structure (SMILES): O=c1[nH]c(=O)n([C@H]2C[C@H](O)[C@@H](CO)O2)cc1[N+](=O)[O-]
- IC50 (L1210): 0.003 µg/mL (≈ 0.011 µM)
